Source: ChEMBL document CHEMBL1240441, “New pyrazoline derivatives and their antidepressant activity” (Eur J Med Chem, 2010)

Legend:
[1] = tested on: Mus musculus; experiment: Antidepressant-like activity in Swiss albino mouse assessed as effect on climbing time at 100 mg/kg, ip after 24 hrs measured for 5 mins by modified forced swimming test (reference value: 56.8 +/- 2.6 sec); assay type: functional; conditions: route intraperitoneal
[2] = tested on: Mus musculus; experiment: Antidepressant-like activity in Swiss albino mouse assessed as effect on immobility time at 100 mg/kg, ip after 24 hrs measured for 5 mins by modified forced swimming test (reference value: 102.2 +/- 7.5 sec); assay type: functional; conditions: route intraperitoneal
[3] = tested on: Mus musculus; experiment: Antidepressant-like activity in Swiss albino mouse assessed as reduction of immobility time at 100 mg/kg, ip measured last 4 mins for 6 mins test by tail suspension test (reference value: 116.4 +/- 4.6 sec); assay type: functional; conditions: route intraperitoneal
[4] = tested on: Mus musculus; experiment: Antidepressant-like activity in Swiss albino mouse assessed as effect on swimming time at 100 mg/kg, ip after 24 hrs measured for 5 mins by modified forced swimming test (reference value: 95 +/- 9.7 sec); assay type: functional; conditions: route intraperitoneal
[5] = tested on: Mus musculus; experiment: Neurotoxicity in Swiss albino mouse assessed as effect on motor coordination at 100 mg/kg, ip by rotarod test; assay type: toxicity, organism-based; design: dose 100 mg/kg, route intraperitoneal; conditions: in vivo
[6] = tested on: Mus musculus; experiment: Antidepressant-like activity in Swiss albino mouse assessed as effect on swimming time at 10 mg/kg, ip after 24 hrs measured for 5 mins by modified forced swimming test (reference value: 95 +/- 9.7 sec); assay type: functional; conditions: route intraperitoneal
[7] = tested on: Mus musculus; experiment: Antidepressant-like activity in Swiss albino mouse assessed as effect on climbing time at 10 mg/kg, ip after 24 hrs measured for 5 mins by modified forced swimming test (reference value: 56.8 +/- 2.6 sec); assay type: functional; conditions: route intraperitoneal
[8] = tested on: Mus musculus; experiment: Antidepressant-like activity in Swiss albino mouse assessed as reduction of immobility time at 10 mg/kg, ip measured last 4 mins for 6 mins test by tail suspension test (reference value: 116.4 +/- 4.6 sec); assay type: functional; conditions: route intraperitoneal
[9] = tested on: Mus musculus; experiment: Antidepressant-like activity in Swiss albino mouse assessed as effect on immobility time at 10 mg/kg, ip after 24 hrs measured for 5 mins by modified forced swimming test (reference value: 102.2 +/- 7.5 sec); assay type: functional; conditions: route intraperitoneal

Row | SMILES | Time [1] | Time [2] | Time [3] | Time [4] | Activity [5] | Time [6] | Time [7] | Time [8] | Time [9]
1 | Nn1c(CCc2ccc(O)cc2)nnc1SCC(=O)N1N=C(c2cccs2)CC1c1ccc2c(c1)OCO2 (centres undefined) | 54.1 s | 69.9 s | 96.1 s | 144.7 s | Non-toxic |  |  |  | 
2 | Nn1c(CCc2ccc(O)cc2)nnc1SCC(=O)N1N=C(c2cccs2)CC1c1ccccc1 (centres undefined) | 43.3 s | 33.3 s | 69 s | 191.8 s | Non-toxic |  |  |  | 
3 | Cc1ccc(C2CC(c3cccs3)=NN2C(=O)CSc2nnc(CCc3ccc(O)cc3)n2N)cc1 (centres undefined) | 54.4 s | 58.4 s | 85.9 s | 147.8 s | Non-toxic |  |  |  | 
4 | CNCCC(Oc1ccc(C(F)(F)F)cc1)c1ccccc1 (centres undefined) [FLUOXETINE] |  |  |  |  |  | 148.5 s | 47.8 s | 90.6 s | 67.6 s
5 | Nn1c(CCc2ccc(O)cc2)nnc1SCC(=O)N1N=C(c2cccs2)CC1c1ccc(Cl)cc1 (centres undefined) | 45 s | 40.5 s | 72.1 s | 193.7 s | Non-toxic |  |  |  | 
6 | CN(C)c1ccc(C2CC(c3cccs3)=NN2C(=O)CSc2nnc(CCc3ccc(O)cc3)n2N)cc1 (centres undefined) | 53.5 s | 66.2 s | 93.5 s | 140 s | Non-toxic |  |  |  | 
7 | Nn1c(CCc2ccc(O)cc2)nnc1SCC(=O)N1N=C(c2cccs2)CC1c1ccc(F)cc1 (centres undefined) | 48.8 s | 52.5 s | 78.8 s | 153.3 s | Non-toxic |  |  |  | 
